Read-outs that look alike come from different tables or passages of the source.
How the values were obtained:
[1] = biological target: T1, soluble guanylate cyclase (sGC) (Homo sapiens, UniProt Q02108+Q02153); assay: sGC-HEK-cGMP assay (run with SNP incubation); assay type: cell-based; conditions: for Emax: 10 μM SNP, 100% = 30 μM BAY 41-2272 with 10 μM SNP, read-out: HEK assay Emax-unconstrained (Percent); for HEK MEC-10: concentration that would elicit 10% of the Emax in the presence of 10 μM SNP; for EC50: in the presence of 10 μM SNP
T1 construct: endogenously expressing soluble guanylate cyclase (sGC); endogenous in cells; host or cells: HEK293
T1 sequence (Q02153 1-619): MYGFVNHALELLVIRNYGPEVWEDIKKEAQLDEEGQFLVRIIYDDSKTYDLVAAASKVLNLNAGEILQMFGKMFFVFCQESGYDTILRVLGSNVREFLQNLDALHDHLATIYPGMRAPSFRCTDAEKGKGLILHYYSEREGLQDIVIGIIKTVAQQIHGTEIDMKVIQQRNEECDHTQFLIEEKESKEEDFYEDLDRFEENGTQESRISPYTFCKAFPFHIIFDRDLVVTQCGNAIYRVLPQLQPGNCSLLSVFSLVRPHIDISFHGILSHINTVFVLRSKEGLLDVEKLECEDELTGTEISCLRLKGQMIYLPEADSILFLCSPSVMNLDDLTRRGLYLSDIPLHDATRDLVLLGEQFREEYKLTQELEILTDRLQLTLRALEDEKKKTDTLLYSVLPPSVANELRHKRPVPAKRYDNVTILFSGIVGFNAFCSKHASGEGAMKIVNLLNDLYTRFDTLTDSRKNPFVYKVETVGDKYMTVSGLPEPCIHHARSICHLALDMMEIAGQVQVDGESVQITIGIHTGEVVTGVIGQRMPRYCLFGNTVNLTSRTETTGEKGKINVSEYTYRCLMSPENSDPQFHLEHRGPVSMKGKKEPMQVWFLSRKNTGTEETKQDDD
T1 sequence (Q02108 1-690): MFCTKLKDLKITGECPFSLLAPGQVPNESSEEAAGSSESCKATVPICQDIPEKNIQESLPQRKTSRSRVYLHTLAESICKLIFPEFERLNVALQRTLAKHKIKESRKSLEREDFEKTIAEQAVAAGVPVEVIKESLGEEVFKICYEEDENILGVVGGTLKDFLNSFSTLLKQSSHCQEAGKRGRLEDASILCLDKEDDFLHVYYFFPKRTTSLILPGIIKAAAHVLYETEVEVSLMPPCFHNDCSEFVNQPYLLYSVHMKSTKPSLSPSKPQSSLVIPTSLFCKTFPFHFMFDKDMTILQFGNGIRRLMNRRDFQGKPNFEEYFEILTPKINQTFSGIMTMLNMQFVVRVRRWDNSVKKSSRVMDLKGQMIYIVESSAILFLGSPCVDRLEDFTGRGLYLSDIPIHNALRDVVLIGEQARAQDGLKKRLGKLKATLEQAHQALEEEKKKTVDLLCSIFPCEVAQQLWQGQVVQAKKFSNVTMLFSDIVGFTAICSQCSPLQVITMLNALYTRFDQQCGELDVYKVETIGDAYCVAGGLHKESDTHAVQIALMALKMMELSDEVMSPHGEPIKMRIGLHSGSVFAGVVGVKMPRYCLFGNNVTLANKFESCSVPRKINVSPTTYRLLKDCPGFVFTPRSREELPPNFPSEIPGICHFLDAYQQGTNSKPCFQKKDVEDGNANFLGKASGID
How it was run: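 HEK293 cells with endogenous sGC were pre-treated 15 min at 37 °C with 0.5 mM IBMX, then exposed to test compound plus sodium nitroprusside for 10 min at 37 °C. Cells were lysed in 0.1 M HCl (4 °C, 30 min), and cGMP was quantified by LC/MS against a standard curve. EC50 values came from concentration-response curves.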

[2] = biological target: T2, Human soluble guanylate cyclase enzyme (hsGC) (Homo sapiens, UniProt Q02108+Q02153); assay: Purified human sGC enzyme activity assay (without SNP); assay type: biochemical; conditions: compound at 30 μM, absence of SNP, fold over DMSO control
T2 construct: purchased Enzo Inc. ALX-201-177
T2 sequence (Q02153 1-619): T1 sequence (Q02153 1-619)
T2 sequence (Q02108 1-690): T1 sequence (Q02108 1-690)
How it was run: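 Purified human sGC (5 ng) in 0.1 M Tris pH 8.0, 2 mM DTT, 2 mM MgCl2, 300 μM GTP, 1 mM IBMX, with compound at 10 or 30 μM final, 30 min at 37° C.; methanol-stopped. cGMP quantified against a standard curve; specific activity expressed as fold-change over DMSO control.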

[3] = biological target: T2, Human soluble guanylate cyclase enzyme (hsGC); assay: Purified human sGC enzyme synergy assay in the presence of 1 μM sodium nitroprusside (SNP); assay type: biochemical; conditions: compound at 30 μM, presence of 1 μM SNP
How it was run: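 Purified hsGC (5 ng) incubated 30 min at 37 °C with compound (10 or 30 μM final) in Tris pH 8.0, 300 μM GTP, 1 mM IBMX, 2 mM MgCl2, with or without 1 μM SNP; stopped with cold methanol. cGMP quantified against standard curve; specific activity expressed as fold-change over DMSO control.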

[4] = Table 3B, top of concentration-response curve not fitted to 100%
[5] = Table 3E, read-out: HEK assay EC50
[6] = top of concentration-response curve not fitted to 100%, Table 3E, read-out: HEK assay EC50-unconstrained
[7] = Table 3A, top of concentration-response curve not fitted to 100%
[8] = Table 3D, read-out: HEK assay EC50
[9] = top of concentration-response curve not fitted to 100%, Table 3D, read-out: HEK assay EC50-unconstrained
[10] = Table 3C, top of concentration-response curve not fitted to 100%
[11] = Table 3F, read-out: HEK assay EC50
[12] = top of concentration-response curve not fitted to 100%, Table 3F, read-out: HEK assay EC50-unconstrained

Row | Compound | Emax [1, 4] | HEK MEC-10 ([1]; Table 3E) | EC50 [1, 5] | EC50 [1, 6] | Enzyme Activity (increase at 30 μM without SNP) ([2]; Table 5B) | Enzyme Activity (increase at 30 μM with SNP) ([3]; Table 5B) | Emax [1, 7] | HEK MEC-10 ([1]; Table 3D) | EC50 [1, 8] | EC50 [1, 9] | Enzyme Activity (increase at 30 μM without SNP) ([2]; Table 5A) | Enzyme Activity (increase at 30 μM with SNP) ([3]; Table 5A) | Emax [1, 10] | HEK MEC-10 ([1]; Table 3F) | EC50 [1, 11] | EC50 [1, 12] | Enzyme Activity (increase at 30 μM without SNP) ([2]; Table 5C) | Enzyme Activity (increase at 30 μM with SNP) ([3]; Table 5C)
1 | O=c1[nH]c(-c2cc(-c3ccon3)n(Cc3cc(F)ccc3F)n2)ncc1F [Compound 72] | 40 to 60% | B (0.01 to <0.1 μM) | 40 to 60 µM | 0.01 to 0.5 µM | D (10 or <20 fold increase) | D (10 or <20 fold increase) |  |  |  |  |  |  |  |  |  |  |  | 
2 | O=c1[nH]c(-c2cc(-c3ccon3)n(Cc3ccccc3F)n2)ncc1S(=O)(=O)N1CCOCC1 [Compound 60] |  |  |  |  |  |  | 80 to 100% | C (0.1 to <1 μM) | < 20 µM | 0.5 to 1 µM | B (2 to <5 fold increase) | D (10 or <20 fold increase) |  |  |  |  |  | 
3 | Fc1ccccc1Cn1nc(-c2ncc3cn[nH]c3n2)cc1-c1ccon1 [Compound 113] |  |  |  |  |  |  |  |  |  |  |  |  | 20 to 40% | C (0.1 to <1 μM) | 20 to 40 µM | 0.01 to 0.5 µM | C (5 to <10 fold increase) | D (10 or <20 fold increase)
4 | CC(=O)Nc1cnc(-c2cc(-c3ccon3)n(Cc3cccc(F)c3F)n2)nc1N [Compound 80] | 40 to 60% | C (0.1 to <1 μM) | 40 to 60 µM | 0.01 to 0.5 µM | D (10 or <20 fold increase) | E (20 to 30 fold increase) |  |  |  |  |  |  |  |  |  |  |  | 
5 | Cn1cnc2nc(-c3cc(-c4ccon4)n(Cc4ccccc4F)n3)ncc21 [Compound 109] |  |  |  |  |  |  |  |  |  |  |  |  | 40 to 60% | D (1 to <10 μM) | 40 to 60 µM | 10 to 50 µM | B (2 to <5 fold increase) | B (2 to <5 fold increase)
6 | Nc1ccnc(-c2cc(-c3ccon3)n(Cc3ccc(F)cc3F)n2)n1 [Compound 71] | 60 to 80% | C (0.1 to <1 μM) | 60 to 100 µM | 1 to 5 µM | A (no increase to <2 fold increase) | D (10 or <20 fold increase) |  |  |  |  |  |  |  |  |  |  |  | 
7 | O=c1[nH]c(-c2cc(-c3ccon3)n(Cc3ccccc3F)n2)nc(F)c1C(F)(F)F [Compound 85, 6-fluoro-2-(1-(2-fluorobenzyl)-5-(isoxazol-3-yl)-1H-pyrazol-3-yl)-5-(trifluoromethyl)pyrimidin-4(3H)-one] | 40 to 60% |  |  | 0.01 to 0.5 µM | C (5 to <10 fold increase) | E (20 to 30 fold increase) |  |  |  |  |  |  |  |  |  |  |  | 
8 | Oc1nc(-c2cc(-c3ccon3)n(Cc3ccccc3F)n2)ncc1-c1ncco1 [Compound 38] |  |  |  |  |  |  | 80 to 100% | D (1 to <10 μM) | < 20 µM | 5 to 10 µM | B (2 to <5 fold increase) | C (5 to <10 fold increase) |  |  |  |  |  | 
9 | CC1(C)C(=O)Nc2nc(-c3cc(-c4ccon4)n(Cc4ccccc4F)n3)nc(N)c21 [Compound 99, 4-amino-2-(1-(2-fluorobenzyl)-5-(isoxazol-3-yl)-1H-pyrazol-3-yl)-5,5-dimethyl-5H-pyrrolo[2,3-d]pyrimidin-6(7H)-one] |  |  |  |  |  |  |  |  |  |  |  |  | 40 to 60% | B (0.01 to <0.1 μM) | < 20 µM | 0.01 to 0.5 µM | D (10 or <20 fold increase) | D (10 or <20 fold increase)
10 | O=c1[nH]c(-c2cc(-c3ccccn3)n(Cc3ccccc3F)n2)ncc1F [Compound 68] | 40 to 60% | D (1 to <10 μM) | 40 to 60 µM | 5 to 10 µM | A (no increase to <2 fold increase) | C (5 to <10 fold increase) |  |  |  |  |  |  |  |  |  |  |  | 
11 | Fc1ccccc1Cn1nc(-c2ncc(Br)c(Cl)n2)cc1-c1ccon1 [Compound 52] |  |  |  |  |  |  | 40 to 60% | D (1 to <10 μM) | 60 to 100 µM | 10 to 50 µM | B (2 to <5 fold increase) | D (10 or <20 fold increase) |  |  |  |  |  | 
12 | Oc1nc(-c2cc(-c3ccon3)n(Cc3ccccc3)n2)ncc1F [Compound 41] |  |  |  |  |  |  | 80 to 100% | B (0.01 to <0.1 μM) | < 20 µM | 0.5 to 1 µM | C (5 to <10 fold increase) | D (10 or <20 fold increase) |  |  |  |  |  | 
13 | CC(=O)Nc1n[nH]c2nc(-c3cc(-c4ccon4)n(Cc4ccccc4F)n3)ncc12 [Compound 114] |  |  |  |  |  |  |  |  |  |  |  |  | 60 to 80% | A (0.001 to <0.01 μM) | < 20 µM | 0.01 to 0.5 µM | D (10 or <20 fold increase) | E (20 to 30 fold increase)

Reference: US20150342954A1, “2-BENZYL, 3-(PYRIMIDIN-2-YL) SUBSTITUTED PYRAZOLES USEFUL AS SGC STIMULATORS” (IRONWOOD PHARMACEUTICALS, INC., priority 2011, published 2015)
